Assay in all cases: inhibition of tumour cell growth, NCI panel, 48 h
Experiment [1] relates to MDA-MB-231.
Experiment [2] has as its system SF-539.
The test system of experiment [3] is 786-0.
Experiment [4] deals with HCT-15.
The test system of experiment [5] is K562.
Experiment [6] deals with OVCAR-5.
Experiment [7] concerns UACC-257.
The subject of experiment [8] is U-251.
Experiment [9] has as its system MDA-N.
Experiment [10] relates to A549.
Experiment [11] concerns UO-31.
Experiment [12] deals with HCC 2998.
Experiment [13] deals with A498.
Experiment [14] deals with SK-OV-3.
Experiment [15] relates to IGROV-1.
In experiment [16] the test system is SW-620.
In experiment [17] the test system is NCI-H522.
The subject of experiment [18] is SK-MEL-5.
Experiment [19] relates to MOLT-4.
Experiment [20] concerns SNB-75.

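Where inhibition never reached the appropriate level, the endpoint shown equals the highest concentration tested. Otherwise, values were interpolated linearly from a five-concentration, 48-hour dose response in 96-well plates. GI50 marks 50% less growth.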 Calls of active or inactive are those of the source. Rule as the data show it: active = GI50 up to about 1.1 µM and inactive = higher.

As for `Cc1ccc(S(=O)(=O)N2CCSCCSCCSCCSCC2)cc1`, the GI50 is 19.5 µM (inactive) in [1]; 26.9 µM (inactive) in [2]; 21.1 µM (inactive) in experiment [3]; greater than 100 µM in [4]; > 71 µM (inactive) in experiment [5]; > 100 µM (inactive) in [6]. Moreover, the GI50 in experiment [7] is > 91.2 µM (inactive); in experiment [8], 18.4 µM (inactive); in experiment [9], > 89.7 µM (inactive); in experiment [10] it was 61.1 µM (inactive); in [11] it was 50.2 µM (inactive); in [12], > 100 µM (inactive). Further, the GI50 in experiment [13] is > 44.2 µM (inactive); in experiment [14], 19.1 µM (inactive); in experiment [15], 48.4 µM (inactive); in [16] it was > 100 µM (inactive); in [17], 33.6 µM (inactive); in experiment [18], 43.1 µM (inactive). The GI50 in experiment [19] is > 82.2 µM (inactive); in experiment [20] it was 11.9 µM (inactive).
As for `COc1cc2c(c(O)c1OC)C(=O)[C@@H]1CCC(=O)N1C2`, the GI50 is > 100 µM (inactive) in experiment [1]; > 100 µM (inactive) in experiment [2]; > 100 µM (inactive) in experiment [3]; greater than 100 µM in experiment [4]; > 100 µM (inactive) in experiment [5]; > 100 µM (inactive) in experiment [6]. Further, the GI50 in experiment [7], in experiment [8], in [9], in [10], in experiment [11] and in experiment [12] was > 100 µM (inactive) in each case. For the same compound, the GI50 in experiment [13], in [14], in experiment [15], in experiment [16], in experiment [17] and in [18] was > 100 µM (inactive) each time. The GI50 in experiment [19] and in experiment [20] was > 100 µM (inactive) in each case.
On to `COc1ccc(OC)c(C2Cc3cnc4nc(N)nc(N)c4c3C2)c1` (stereo not given), for which the GI50 in [1] is 23.7 µM (inactive); in experiment [2] it was 13.7 µM (inactive); in experiment [3] it was 24.2 µM (inactive); in experiment [4] it was 29.2 µM; in experiment [5] it was 19.1 µM (inactive); in experiment [6], 32.9 µM (inactive). The GI50 in [7] was 18.3 µM (inactive); in [8], 20.7 µM (inactive); in [9], 25.8 µM (inactive); in experiment [10], 41.5 µM (inactive); in experiment [11] it was 71.9 µM (inactive); in experiment [12], 26.3 µM (inactive). The GI50 was 16.9 µM (inactive) in experiment [13]; 31.8 µM (inactive) in experiment [14]; 15.8 µM (inactive) in experiment [15]; 33.2 µM (inactive) in [16]; 24.1 µM (inactive) in [17]; 29.6 µM (inactive) in [18]. Also, the values for the GI50 in [19] and in [20] were 24.5 µM (inactive) and 17.4 µM (inactive), respectively.
In the case of `CCOC(=O)/C(C(N)=O)=C(/O)c1cnccn1`, the GI50 is > 100 µM (inactive) in experiment [1]; > 100 µM (inactive) in [2]; > 100 µM (inactive) in [3]; greater than 100 µM in experiment [4]; > 100 µM (inactive) in experiment [5]; > 100 µM (inactive) in [6]. Moreover, the GI50 in experiment [7], in experiment [8], in [9], in experiment [10], in experiment [11] and in [12] was > 100 µM (inactive) each time. Moreover, the GI50 in [13], in experiment [14], in [15], in experiment [16], in [17] and in experiment [18] was > 100 µM (inactive) each time. Moreover, the GI50 in [19] and in experiment [20] was > 100 µM (inactive) each time.
Turning to `O=C(c1ccccc1)N1C(=O)N(c2ccccc2)C(=N/c2ccccc2)/C1=N\c1ccccc1`, the GI50 in experiment [1] is > 100 µM (inactive); in experiment [2] it was > 100 µM (inactive); in [3], > 100 µM (inactive); in [4] it was 64 µM; in experiment [5] it was 7.36 µM (inactive); in experiment [6], 99.1 µM (inactive). The GI50 in experiment [7] was 37.8 µM (inactive); in experiment [8], > 100 µM (inactive); in experiment [9], > 100 µM (inactive); in experiment [10] it was 42.2 µM (inactive); in [11], > 100 µM (inactive); in experiment [12], 28.8 µM (inactive). Besides, the GI50 in experiment [13] is > 100 µM (inactive); in [14], > 100 µM (inactive); in experiment [15], > 100 µM (inactive); in [16], > 100 µM (inactive); in experiment [17] it was 11 µM (inactive); in experiment [18] it was > 100 µM (inactive). Further, the GI50 was 19.5 µM (inactive) in experiment [19] and > 100 µM (inactive) in [20].
For `O=C(CC(=O)N(C(=O)c1ccccc1)c1ccc(Cl)cc1)N/N=C\c1ccccc1O`, the GI50 in [1] was 12.9 µM (inactive); in experiment [2] it was 36.1 µM (inactive); in experiment [3], 40 µM (inactive); in [4] it was 53.1 µM; in [5], > 100 µM (inactive); in experiment [6], 36.6 µM (inactive). Besides, the GI50 is > 100 µM (inactive) in experiment [7]; 48.2 µM (inactive) in experiment [8]; > 100 µM (inactive) in experiment [9]; 82 µM (inactive) in experiment [10]; 38.7 µM (inactive) in [11]; 33.6 µM (inactive) in [12]. Also, the GI50 in [13] was 65 µM (inactive); in [14], 17.2 µM (inactive); in experiment [15], 25.4 µM (inactive); in experiment [16] it was > 100 µM (inactive); in experiment [17] it was > 100 µM (inactive); in experiment [18], 64 µM (inactive). In addition, the GI50 in [19] is 2.61 µM (inactive); in experiment [20], 22.9 µM (inactive).
On to `COc1cccc(C2c3cc4c(cc3OC(N3CCCCC3)C2C)OCO4)c1OC` (stereo not given), for which the GI50 in experiment [1] was 14.3 µM (inactive); in experiment [2], 12.6 µM (inactive); in [3], 72.1 µM (inactive); in experiment [4] it was 3.37 µM; in experiment [5], 3.63 µM (inactive); in [6], 17.7 µM (inactive). Further, the GI50 was 5.94 µM (inactive) in experiment [7]; 4.58 µM (inactive) in experiment [8]; 11.2 µM (inactive) in experiment [9]; 5.14 µM (inactive) in experiment [10]; 7.05 µM (inactive) in experiment [11]; 15.3 µM (inactive) in experiment [12]. For the same compound, the GI50 in experiment [13] is 9.42 µM (inactive); in [14], 12.4 µM (inactive); in experiment [15], 5.16 µM (inactive); in experiment [16] it was 3.93 µM (inactive); in experiment [17] it was 5.21 µM (inactive); in [18], 6.47 µM (inactive). Besides, the GI50 is 4.42 µM (inactive) in [19] and 5.52 µM (inactive) in experiment [20].
In the case of `Nc1ccc([As](=O)(O)O)cc1` [ARSANILIC ACID], the GI50 in [1] was > 100 µM (inactive); in experiment [2], > 100 µM (inactive); in experiment [3], > 100 µM (inactive); in experiment [4] it was greater than 100 µM; in [5], > 100 µM (inactive); in experiment [6] it was > 100 µM (inactive). Further, the GI50 in [7], in [8], in experiment [9], in [10], in [11] and in experiment [12] was > 100 µM (inactive) in each case. For the same compound, the GI50 in [13], in [14], in experiment [15], in experiment [16], in experiment [17] and in experiment [18] was > 100 µM (inactive) throughout. The GI50 in [19] and in experiment [20] was > 100 µM (inactive) in each case.
